For one test, the system named is cells expressing lppΔK. Briefly: Time-kill, CFT073 imp4213 Δlpp complemented with lpp or lppΔK. The test is classed as cell-based, E. coli. Particulars: 12.5 μM G2824 or 3.2 μM globomycin; CFU; lppΔK (unable to link to PGN) versus WT lpp. An excerpt:
To determine if loss of PGN linkage of Lpp leads to increased G2824 bactericidal activity, we treated CFT073 imp4213 Δlpp cells complemented with either WT lpp or a mutant form that is unable to covalently link to PGN (lppΔK). Using the previously described SDS fractionation protocol, we confirmed that while WT Lpp localized to both PAP and non-PAP fractions, the LppΔK mutant was primarily detected in the non-PAP fraction (see Fig. S5A). As we noted earlier, PGN-linked DGPLP (§) and other PGN-linked Lpp forms (†) were primarily detectable in the PAP fraction (Fig. S5A).
Unless stated otherwise, E. coli cells were grown in Luria-Bertani (LB) medium (0.5% yeast extract, 1% tryptone, 0.5% NaCl) at 37°C. […] Growth of MG1655 inducible deletion strains was measured by culturing in the presence of 2-fold dilutions of arabinose (starting arabinose concentrations for CFT073 and MG1655 inducible deletion strains were 4% and 0.8%, respectively). While 2% arabinose was sufficient for WT growth of MG1655 Δlgt, 4% arabinose was used for CFT073 Δlgt based on comparing its growth to that of WT CFT073 as measured by CFU. OD600 growth measurements were performed using an EnVision 2101 multilabel reader plate reader (PerkinElmer) linked with Echo liquid handler (Labcyte). […] Bacterial viability at different time points during the treatment was measured by enumerating CFU. […]

In a further test the test system is LspA. Particulars: LspA inhibitor globomycin; cited from earlier work. An excerpt:
Using a combination of biochemical and genetic strategies, we believe the Lgt inhibitor G2824 identified in this study inhibits bacterial cell growth through inhibition of the diacylglyceryl transferase activity of Lgt. First, G2824 was identified using a specific Lgt binding assay and confirmed to inhibit Lgt enzymatic function in vitro. Second, the results generated from pharmacologic inhibition of Lgt by G2824 in both CFT073 and MG1655 E. coli strains are highly consistent with the genetic depletion of Lgt, strongly arguing against off-target effects as a main cause of G2824 bactericidal ac ...

For a further test, the system named is MG1655 imp4213. Briefly: Sucrose gradient centrifugation, IM and OM separation. Particulars: 1× MIC, 60 min. In kind it is cell-based, E. coli. Here is the method:
Bacterial inner and outer membranes were separated by isopycnic sucrose gradient centrifugation as described previously ([75]) and by the Hancock Laboratory (http://cmdr.ubc.ca/bobh/method/outer-membrane-preparation-one-step-sucrose-gradient-procedure/), with some modifications. Briefly, bacteria were grown in Luria broth at 37°C to mid-exponential phase (OD600 of 0.8 to 0.9) and then treated with 1× MIC of designated inhibitors for 1 h. Cells representing equivalents of an OD600 of 10 were harvested by centrifugation at 4,000 × g for 15 min, washed once, and resuspended in cold 10 mM Tris, pH 8.0, containing 20% (wt/vol) sucrose, cOmplete EDTA-free protease inhibitor cocktail (Roche), and 1,000 U/ml nuclease (Benzonase nuclease; EMD Millipore). The cell suspension was disrupted by two passages through an LV1 Microfluidizer (Microfluidics). Unbroken cells were removed by centrifugation at 4,000 × g, and membranes were collected by ultracentrifugation at 100,000 × g for 1 h and washed once with cold 10 mM Tris, pH 8.0. The final membrane preparation was resuspended in 10 mM Tris, pH 8.0, containing 10% sucrose, cOmplete EDTA-free protease inhibitor cocktail (Roche), and 1,000 U/ml nuclease and then applied to the top of the sucrose gradients (73%, 60%, and 20%). The loaded gradients were spun at 39,000 rpm for 22 h at 4°C in a Beckman SW 41 Ti rotor. Fractions were collected from the top and analyzed by SDS-PAGE and immunoblotting with appropriate antibodies.

A further test deals with BW25113 cells, lgt gRNA. Briefly: CRISPRi knockdown sensitization, lgt gRNA. Particulars: 2 μM G2824, 0.05 μM globomycin or 0.016 μM ciprofloxacin; OD600 relative to untreated, versus scr or folA gRNA. The test is classed as cell-based, E. coli. The text has this: The two-plasmid bacterial CRISPRi system pdCas9-bacteria_GNE and PGNRNA-bacteria_GNE are based on the AddGene plasmids 44249 and 44251 ([73]), respectively. The plasmid was synthesized in smaller DNA fragments (500 bp to 3 kb) (IDT gBlocks) and assembled by Gibson assembly (NEB) according to the manufacturer’s protocols. Plasmids were confirmed by sequencing (ELIM Bio). gRNAs were designed to target the 5′ end of the gene on the nontemplate strand using Benchling CRISPR software ([74]). gRNAs were cloned into PGNRNA-bacteria using Gibson assembly (NEB) according to the manufacturer’s protocols and sequence confirmed (ELIM Bio).
Bacterial cultures were grown overnight on LB agar supplemented with carbenicillin (50 μg/ml) and chloramphenicol (12.5 μg/ml) to maintain both plasmids, pdCas9-bacteria and PGNRNA-bacteria with each gRNA as appropriate. Cells were scraped from the plate into fresh medium. The OD600 was measured, and the culture was subsequently diluted to an OD600 0.001 in the presence or absence of G2824, globomycin, or ciprofloxacin. Two hundred microliters was transferred to a 96-well plate (Corning) and monitored for growth by measuring the OD600 (EnVision multimode plate reader; PerkinElmer). All treatments were performed in triplicates. The specificity of CRISPRi downregulation was measured using reverse transcriptase quantitative PCR (RT-qPCR).

The subject of another test is WT CFT073. Briefly: MIC assay, WT CFT073 (Table 1). In kind it is cell-based, E. coli. Particulars: Escherichia coli, average of two independent experiments, each in duplicates, CLSI. Here is the method:
(§1) Unless stated otherwise, E. coli cells were grown in Luria-Bertani (LB) medium (0.5% yeast extract, 1% tryptone, 0.5% NaCl) at 37°C. Where indicated, kanamycin (Kan) was added to culture media at a 50-μg/ml final concentration. MIC assays were performed based on Clinical and Laboratory Standards Institute (CLSI) guidelines. For in vitro growth curves, overnight cultures of WT CFT073, CFT073 Δlgt, and CFT073 Δlgt complemented with lgt from E. coli (lgt^Ec) or P. aeruginosa (lgt^Pa) were grown to mid-exponential phase (optical density at 600 nm [OD600] of 0.6) and then diluted to an OD600 of 0.1 to initiate growth curves. At various times, culture aliquots were diluted and plated in dilutions on LB+Kan agar, and CFU were enumerated in duplicates. Growth of MG1655 inducible deletion strains was measured by culturing in the presence of 2-fold dilutions of arabinose (starting arabinose concentrations for CFT073 and MG1655 inducible deletion strains were 4% and 0.8%, respectively). While […] was sufficient for WT growth of MG1655 Δlgt, 4% arabinose was used for CFT073 Δlgt based on comparing its growth to that of WT CFT073 as measured by CFU. OD600 growth measurements were performed using an EnVision 2101 multilabel reader plate reader (PerkinElmer) linked with Echo liquid handler (Labcyte). For time-kill experiments, bacteria were harvested in mid-exponential phase and treated with 12.5 μM G2824, 3.2 μM globomycin, and 1.6 μM vancomycin. CFU were enumerated at various times posttreatment. Bacterial culture medium containing 2% arabinose was used to induce lpp or lppΔK expression from pBad24 plasmids. Bacterial viability at different time points during the treatment was measured by enumerating CFU. Serum killing assays were carried out as previously described ([17]).

A further test concerns CFT073 Δlgt. In words: MIC assay, CFT073 Δlgt, Lgt 0.25% Ara. Particulars: Escherichia coli. In kind it is cell-based, E. coli. The procedure: as §1

Structures are written as SMILES. Values after ≈ are worked out from the molar mass of the structure shown.

Regarding `CCCCCC[C@H]1OC(=O)CNC(=O)[C@H]([C@H](C)O)NC(=O)[C@H](CO)NC(=O)[C@H]([C@H](C)CC)NC(=O)[C@H](CC(C)C)N(C)C(=O)[C@@H]1C` [Globomycin], in the test with cells expressing lppΔK, the “effect of lppΔK on bactericidal killing” value is listed as “completely resistant”. In addition, in the test with LspA, the on-target resistance mutations result is “no on-target resistance mutations have ever been identified”. Also, in the test on MG1655 imp4213, the “IM accumulation of OM lipoproteins and OMPs” value is “IM accumulation of OM lipoproteins (Pal and BamB) and OMPs (BamA and OmpA)”; the “IM accumulation of PGN-linked Lpp” value is listed as “significant IM accumulation of PGN-linked Lpp, including DGPLP”; the “localization of OmpA” value is on record as “mislocalization of the β-barrel protein, OmpA”. In addition, the “IM total protein and OM density” value in the test with MG1655 imp4213 (versus untreated) was “increases in total protein levels in the IM fraction and a decrease in OM density”. Moreover, the “sensitization by decreased lgt expression” value in the test with BW25113 cells, lgt gRNA is listed as “not globomycin”.
By MIC is commonly meant the least concentration at which growth counts as inhibited. Read a high MIC as weaker potency. Take `CN[C@H](CC(C)C)C(=O)N[C@H]1C(=O)N[C@@H](CC(N)=O)C(=O)N[C@H]2C(=O)N[C@H]3C(=O)N[C@H](C(=O)N[C@H](C(=O)O)c4cc(O)cc(O)c4-c4cc3ccc4O)[C@H](O)c3ccc(c(Cl)c3)Oc3cc2cc(c3O[C@@H]2O[C@H](CO)[C@@H](O)[C@H](O)[C@H]2O[C@H]2C[C@](C)(N)[C@H](O)[C@H](C)O2)Oc2ccc(cc2Cl)[C@H]1O` [Vancomycin]: the MIC is more than 100 µM against WT CFT073 and 12.5 µM (≈ 18.1 µg/mL) against CFT073 Δlgt.

The values are drawn from PMC8316002, “Inhibition of Escherichia coli Lipoprotein Diacylglyceryl Transferase Is Insensitive to Resistance Caused by Deletion of Braun’s Lipoprotein” (Journal of Bacteriology, 2021).
